Each structure is given as a SMILES string.

The record followed here is a melting point compilation (Tetko et al.).

What is called melting point is the temperature, or range, at which the solid turns liquid. Consider `Cc1cc(N)n(C2CCN(C)CC2)n1`, for which the melting point was 89 to 91 °C. Then `COc1cc(C(=O)O)cc(OC)c1C(C)C`, with 164 to 166 °C; and `O=C1CCc2ccc(Cl)cc21`, with 79 to 81 °C. Then `O=C1CNc2cccc(F)c2N1`, with 161 to 163 °C; and `COc1cc(OC)cc(C(=O)NCC(=O)O)c1`, with 91 to 93 °C; and `CN1C(=O)CCC(C(N)=O)C1c1cccs1` (stereo not drawn), with 179 to 181 °C.

Turning to `O=C(O)c1cccnc1Sc1ccc2c(c1)OCCO2`, the melting point fell in the range of 228 to 230 °C. As for `CCS(=O)(=O)NCCC(=O)O`, the melting point was 63 to 65 °C. `COCCc1nc2cc(N)ccc2o1` came in with a melting point of 44 to 46 °C. For `CCOc1ccc(NC(=S)NN)cc1`, the melting point was 178 to 182 °C. The same measure for `O=C(O)c1cccc(N2CCOC2=O)c1`: 214 to 216 °C; for `O=C(O)c1ccc(C(=O)c2cc[nH]c2)cc1`: 219 to 221 °C. Regarding `N#Cc1csc(C(=O)O)c1`, the melting point is 224 to 226 °C. Then `CC(C)N1CCCC(Br)C1=O` (stereo not drawn), with 52 to 54 °C. In turn, `NC(=S)C(NC(=O)c1ccccc1)C1CC1` (stereo not drawn) returned a melting point of 199 to 201 °C. Then `COc1ccc(CCl)cc1S(C)(=O)=O`, with 118 to 120 °C; and `O=C(CCl)N(Cc1nnc(-c2ccc(Cl)cc2)o1)C1CC1`, with 102 to 104 °C. `Cn1cc(S(=O)(=O)NN)c(=O)n(C)c1=O`: the melting point lay within 134 to 136 °C. `COCCOc1nc(C(=O)O)cc2ccccc12` yielded a melting point of 145 to 147 °C.

As for `CC(=O)c1cccc(NC(=O)OCC(F)(F)F)c1`, the melting point lay in the range of 135 to 137 °C. The same measure for `CC(=O)NCCNC(=O)CCC(=O)O`: 166 to 168 °C; for `O=C(O)Cc1cc(Cl)c2c(c1)OCCCO2`: 166 to 168 °C.

In turn, `COc1ccc(/C=C/C(=O)O)cc1S(=O)(=O)N(C)C` gave a melting point of 229 to 231 °C. Then `Nc1nc2cc(F)c(F)cc2s1`, with 171 to 173 °C. Molecule `O=C1CCS(=O)(=O)O1` gave a melting point of 69 to 71 °C. The same measure for `O=C(O)CC(NC(=O)c1ccccc1)c1ccccc1` (stereo not drawn): 197 to 199 °C; for `NC(=S)CCN1CCCCC1`: 104 to 106 °C; for `CC(C)C(NC(=O)c1ccc(Br)cc1)C(=O)O` (stereo not drawn): 189 to 191 °C. Then `CCn1c(SCC(=O)O)nnc1-c1cccc(C)c1`, with 281 to 283 °C; and `C=CC(=O)Nc1ccccc1OC`, with 68 to 70 °C. The same measure for `NCc1ccc(-n2cnc3ccccc32)nc1`: 97 to 99 °C; for `COCc1ccccc1CNC(=O)CCl`: 51 to 53 °C; for `N#Cc1ccccc1Oc1ccc(N)cn1`: 92 to 94 °C. Turning to `CC(=O)OCc1ccc(S(=O)(=O)C(F)F)cc1`, the melting point lay within 75 to 77 °C. `Cc1cc2nc(Cl)c3ccccc3n2n1` yielded a melting point of 138 to 140 °C. As to `O=C1CC2CCCC(C1)N2Cc1ccccc1`, the melting point lay in the range of 66 to 68 °C. The same measure for `CCCCc1ccc(N2C(=O)C=CC2=O)cc1`: 40 to 44 °C. The same measure for `CS(=O)(=O)c1nc2cc(Br)cnc2[nH]1`: 222 to 224 °C. Then `NNc1ccc2ccccc2n1`, with 147 to 151 °C; and `Cn1cc(N)cc(Br)c1=O`, with 159 to 161 °C; and `O/N=C/c1c(Cl)nc(Cl)n1-c1ccccc1`, with 179 to 181 °C. As to `O=C(O)C=Cc1cccc(CO)c1`, the melting point was in the range of 129 to 131 °C. Molecule `Fc1ccc(CNc2nnc(S)s2)cc1` gave a melting point of 168 to 170 °C. Then `O=C(NC1(C(=O)O)CCCC1)c1ccc2[nH]ncc2c1`, with 285 to 287 °C; and `Cc1nc(C)n(-c2ccc(C(=O)O)cc2)n1`, with 289 to 291 °C. With `CCN1CC(C(=O)O)CC1=O` (stereo not drawn), the melting point lay within 92 to 94 °C.

`CCNC(=O)c1cccc(O)c1` registered a melting point of 160 to 162 °C. Turning to `NNC(=O)CN1CCCC1=O`, the melting point was 99 to 101 °C. Then `CC(Cl)C(=O)Nc1ccc([N+](=O)[O-])cc1C(F)(F)F` (stereo not drawn), with 183 to 185 °C. Then `ClCc1ncn(-c2ccccc2)n1`, with 83 to 85 °C. `CC(C)(C)NC(=O)c1ccc(N)cc1` had a melting point of 124 to 126 °C. Consider `N#Cc1ccccc1Oc1ccc(N)cc1`, for which the melting point was in the range of 118 to 120 °C.

Molecule `O=C1CCc2cc(C(=O)c3c(F)cccc3F)ccc2N1` yielded a melting point of 248 to 250 °C. The same measure for `O=C(O)c1cc(S(=O)(=O)N2CCCCC2)ccc1Br`: 230 to 232 °C. Consider `NC1CCCCNC1=O` (stereo not drawn), for which the melting point was 54 to 56 °C. Regarding `COc1ccc2cc[nH]c(=O)c2c1`, the melting point is 201 to 203 °C. The same measure for `O=C(O)C1CCCN(C(=O)Nc2ccccc2)C1` (stereo not drawn): 163 to 165 °C. Then `O=C(O)CCc1nc(-c2cccs2)no1`, with 108 to 110 °C; and `CC(C)(C)n1cnnc1SCC(=O)O`, with 161 to 163 °C. Then `COc1ccc2cc(N)ccc2n1`, with 101 to 103 °C; and `CCOC(=O)c1sc(SC)nc1N`, with 80 to 82 °C. Turning to `COc1ccc2c(c1)OCC(C(=O)O)C2` (stereo not drawn), the melting point lay in the range of 152 to 154 °C. The same measure for `NC1=NC(=O)NC12CCCC2`: 250 to 252 °C. `Oc1cc(Br)ccc1C(F)(F)F` yielded a melting point of 89 to 91 °C. Then `CNC1CCN(c2ccc(Cl)cc2)CC1`, with 49 to 51 °C. The same measure for `COCC(=O)c1ccc(F)c(F)c1`: 39 to 41 °C; for `COC(=O)c1oc(CCl)cc1C`: 53 to 55 °C. Then `CC1CCN(Cc2ccccc2)c2ccccc2N1` (stereo not drawn), with 68 to 70 °C; and `CCOC(=O)c1cnc(O)nc1C`, with 179 to 181 °C.

With `N#CCC(=O)N1CCN(c2ccccc2)CC1`, the melting point was in the range of 132 to 134 °C. Molecule `O=[N+]([O-])c1cc(NS(=O)(=O)c2ccc3c(c2)OCCCO3)ccc1F` gave a melting point of 145 to 147 °C. The same measure for `NC(=O)C1(Br)CCC1`: 150 to 152 °C; for `Oc1ccccc1Oc1ccccn1`: 110 to 112 °C. Then `OCc1nnc(S)n1C1CC1`, with 154 to 156 °C; and `O=C(O)C(Oc1ccc(F)cc1F)c1ccccc1` (stereo not drawn), with 96 to 98 °C.

`Nc1ccc(-c2csnn2)cc1`: the melting point was 125 to 127 °C. As to `Nc1ccc(Oc2ccccc2)cc1C(=O)O`, the melting point lay in the range of 138 to 140 °C. Molecule `CN(C)S(=O)(=O)c1ccc(C(=O)CBr)cc1` had a melting point of 90 to 92 °C.

As to `Cc1cc(C#N)ccc1NC1CCC(O)CC1` (stereo not drawn), the melting point lay in the range of 119 to 121 °C.

Molecule `OC(CCc1ccccc1)CCc1ccccc1` returned a melting point of 44 to 46 °C. The same measure for `Cc1nn(-c2ccc(Br)cc2)c(C)c1C=O`: 142 to 144 °C. The same measure for `NC(=O)c1ccc(N)cc1Cl`: 163 to 165 °C; for `Nc1nnc(-c2c(F)cccc2Cl)o1`: 152 to 154 °C; for `CCCC(=O)Nc1ccc(Cl)c(N)c1`: 96 to 98 °C. `CC(Cl)C(=O)c1ccc(Br)cc1` (stereo not drawn): the melting point was 54 to 56 °C. Then `CC(C)(C(=O)O)C(O)c1cccc(OCc2ccccc2)c1` (stereo not drawn), with 125 to 127 °C; and `CCOC(=O)c1cn2c(Br)ccc2cn1`, with 138 to 140 °C. The same measure for `CC(C(=O)O)N1C(=O)NC2(CCCC2)C1=O` (stereo not drawn): 223 to 225 °C. Molecule `O=C(O)c1c(Cl)ccc(S(=O)(=O)Cl)c1Cl` returned a melting point of 168 to 170 °C. The same measure for `O=C(O)CCc1nc2ccccc2n1-c1ccccc1`: 232 to 234 °C; for `COc1cc(C(=O)O)ccc1OCc1csc(C)n1`: 172 to 174 °C; for `COc1cccc(Cn2ccc3ccc(N)cc32)c1`: 59 to 61 °C. The same measure for `CNC(=O)Cc1noc(CCl)n1`: 89 to 91 °C. Molecule `CNS(=O)(=O)c1cc(C(=O)O)c(C)o1` returned a melting point of 154 to 156 °C. The same measure for `Cc1ccc(NC(=O)CCl)cc1S(=O)(=O)N(C)C`: 74 to 76 °C; for `CNCC(=O)Nc1ccc(C)cn1`: 79 to 81 °C.

Turning to `O=C(O)c1csc(C(=O)O)c1`, the melting point lay within 279 to 281 °C. The molecule `Cn1c(=O)[nH]c(=O)c2cc(S(N)(=O)=O)cnc21` showed a melting point of 311 to 313 °C. `NC(=O)C1CC(O)CN1` (stereo not drawn) displayed a melting point of 117 to 119 °C. Molecule `Cc1ccc(Cl)nc1CC(=O)O` gave a melting point of 120 to 122 °C. `OCCOc1ccc(Br)cn1` registered a melting point of 51 to 53 °C. In turn, `O=C(O)c1cccc(S(=O)(=O)Nc2ccc3c(c2)OCO3)c1` had a melting point of 249 to 251 °C.

Molecule `CC(=O)c1nnn(-c2cccc(Cl)c2)c1C` showed a melting point of 82 to 84 °C.

In turn, `O=C1CCCN1c1cccc(O)c1` yielded a melting point of 201 to 203 °C. Then `COc1ccc(NCc2ccc(N(C)C)cc2)cc1`, with 102 to 104 °C. The same measure for `Cc1cccc2c(=O)[nH]cnc12`: 255 to 257 °C.

In turn, `c1n[nH]cc1C1CCCNC1` (stereo not drawn) displayed a melting point of 71 to 73 °C.

In turn, `Cc1ccccc1C1(C(=O)O)CCOCC1` came in with a melting point of 170 to 172 °C. `CC(C)N(C)S(=O)(=O)c1ccc(C(=O)O)cc1` gave a melting point of 176 to 178 °C. Then `Clc1ncnc2c1nnn2-c1ccccc1`, with 115 to 117 °C; and `CCC(Oc1cccc(C)c1)C(=O)O` (stereo not drawn), with 72 to 74 °C.

On to `Cc1ccccc1-n1cc(C(=O)O)cn1`, for which the melting point lay in the range of 106 to 108 °C. Then `Nc1nnc(C2COc3ccccc3O2)o1` (stereo not drawn), with 210 to 212 °C; and `O=C(Nc1ccccc1C(=O)O)c1ccc(Cl)cc1`, with 208 to 210 °C. The same measure for `Cc1ccc2oc(S)nc2n1`: 139 to 141 °C. The molecule `Cc1cc(C)cc(C(N)c2cccnc2)c1` (stereo not drawn) yielded a melting point of 47 to 49 °C. Then `Cc1cc(C(C)(C)C)cc(C)c1CC#N`, with 84 to 86 °C. On to `CC1Oc2c(ccc(Cl)c2Cl)C1=O` (stereo not drawn), for which the melting point fell in the range of 99 to 101 °C. Regarding `Cc1ccccc1C1CNC(=O)C1` (stereo not drawn), the melting point was in the range of 115 to 117 °C. In turn, `O=C(O)C1CC1c1cccc(C(F)(F)F)c1` (stereo not drawn) showed a melting point of 84 to 86 °C. For the molecule `O=C(O)c1cccnc1SCc1ccc(F)cc1`, the melting point lay in the range of 191 to 193 °C. Then `C=CC(=O)Nc1cc(F)cc(F)c1`, with 155 to 157 °C; and `CN(c1ccc(O)cc1)S(=O)(=O)c1cccs1`, with 149 to 151 °C.
